We go through 16 compounds from patent US4732898A, “2-(2-aryl-2-oxoalkylidene) analogs of-3,5-pyridinedicarboxylic acid dialkyl esters useful for treatment of cardiovascular disorders” (Warner-Lambert Company, priority 1987, dated 1988).

pIC50: −log10 of the molar value. Like-named read-outs stand apart in the source and are kept apart here.

One may read the pIC50 as −log10 of the IC50, conventionally taken in molar units. Usually EC25 stands for the concentration at which the effect reaches the 25% level. The EC20 is the concentration needed for an effect of 20%.

For one test, the target named is dihydropyridine receptor. Description: inhibition of [3H]-nitrendipine binding in rat brain homogenate. To be noted: read-out: IC50 (index of dihydropyridine receptor affinity; inhibition of [3H]-nitrendipine binding). An excerpt:
*Index of dihydropyridine receptor affinity: IC50 for inhibition of
[^3 H]--nitrendipine binding in rat brain homogenate.

The test system of test [1] is isolated Langendorff rat heart. Description: inotropic and vascular activities in the isolated Langendorff rat heart preparation (CVIH). The conditions noted are these: isolated perfused rat heart. The protocol:
TEST FOR INOTROPIC, CHRONOTROPIC, AND VASCULAR ACTIVITIES IN THE ISOLATED LANGENDORFF RAT HEART PREPARATION (CARDIOVASCULAR ISOLATED HEART - CVIH)
Male rats (400-600 gms) are pretreated with 2000 units Na heparin (Parke-Davis) and anesthetized with Na pentobarbital (50 mg/kg, Butler Co.) administered intraperitoneally. Once anesthetized, the rat heart is rapidly excised, the ascending aorta fitted to the aorta perfusion cannula, and secured with a ligature. The coronary arteries are perfused initially at a rate of about 15 ml/min for two to three minutes, after which they are perfused at constant pressure of 70 mm Hg and temperature of 37° C. The electrocardiogram (ECG) is recorded using two platinum electrodes positioned at the base and apex of the left ventricle (LV). The LV is instrumented via the mitral valve with a 4F Millar catheter tip pressure transducer. The catheter is advanced to the apex then withdrawn slightly. Once properly positioned, the catheter is anchored to the perfusion cannulae with an alligator clip. A second heart is excised, cannulated, and perfused by the same method outlined above. Both hearts are tested in parallel. The standard physiological salt solution (PSS) is a modified Krebs Henseleit bicarbonate buffer of the following composition in mM concentration: NaCl, 127; NaHCO^3, 25; dextrose, 5.5; Na Pyruvate, 2.0; KCl, 4.7; MgSO^4, 1.1; KH 2PO^4, 1.2; CaCl^2 ·2H^2, 2.5; CaNa^2 EDTA, 0.05.
A 30-minute stabilization period is observed before starting the test protocol.
A microprocessor control system is used as a servo mechanism which permits coronary perfusion pressure (CPP) and drug concentration to be maintained constant independent of changes in coronary flow. The level at which CPP and drug concentration are maintained can be changed by commands communicated through the microprocessor keyboard. Dose-response curves are carried out by perfusing concentrated drug solution (DC) at rates proportional to total coronary flow (CFT). Drug concentrations are increased by proportionate increases in the rate of DC infusion over CFT via the microprocessor keyboard. The proportional flow rates for DC:CFT are about 0.00005:1 at the low end and 0.0015:1 at the high end of the dose response curve.
Dose-response curves encompassing at least two log units are carried out in one-half log increments starting at a subthreshold dose and ending at a dose which produces near maximal response.
Measurements for CVIH are maximum positive first derivative of LVP (LV+dP/dtmax), heart rate (HR), and coronary flow (CF). Units are: LV+dP/dtmax, millimeters of mercury/second (mm Hg/sec); HR, beats/minute (bpm) and CF, milliliters/minute (ml/min). LV+dP/dtmax is derived from the LVP signal by a differential amplifier and recorded. HR is calculated from the ECG strip chart recording and CF is calculated by recording analog outputs from pumps 1 and 2. Outputs from pump #1 =CFT and the output from pump #2 =CF for heart B (CFB). CF for heart A (CFA) is calculated ([…]). All pumps are calibrated weekly or when pump tubing is replaced.
Compounds are solubilized in DMSO and diluted with water when possible. EC^25 data are obtained from data that is digitized and averaged in a conventional manner.

In another test the test system is anesthetized dog. Briefly: in vivo myocardial inotropic activity in the anesthetized dog. To be noted: 1 mg/kg, femoral vein, pentobarbital anesthetized dog. The protocol:
TEST FOR IN VIVO MYOCARDIAL INOTROPIC ACTIVITY IN THE ANESTHETIZED DOG
Adult mongrel dogs of either sex are anesthetized with pentobarbital, 35 mg/kg, IV, and are maintained under anesthesia with a continuous infusion of pentobarbital, 3.5 mg/kg/hr. The trachea is intubated, but the animals are permitted to breathe spontaneously. A cannula is inserted into the femoral vein for administering test agents. A Millar catheter tip pressure transducer or a fluid filled catheter is inserted into the ascending aorta via the femoral artery for measuring pressure. A Millar catheter tip pressure transducer is passed into the left ventricle via the left carotid artery for measuring left ventricular blood pressure. Needle electrodes are placed subcutaneously for recording a lead II electrocardiogram. Before administering test agents, control data is acquired over a period of at least thirty minutes.
The test agent is dissolved in dimethylacetamide. Each dose is administered in a volume of 0.5 ml over a period of one minute. Appropriate vehicle controls are also administered.

For test [2], the system named is isolated Langendorff rat heart. Description: inotropic and vascular activities in the isolated Langendorff rat heart preparation (CVIH). The conditions noted are these: LV+dP/dtmax; isolated perfused rat heart; EC20 instead of EC25; read-out: EC20 Contractility.
Setting [3] is: LV+dP/dtmax, read-out: EC25 Contractility.
Setting [4] is: coronary flow, read-out: EC25 Flow.

As to `CCOC(=O)C1=C(C)N/C(=C\C(=O)c2ccccc2)C(C(=O)OCC)C1c1ccccn1` (racemic) [Example 16, (2Z,3α,4β)-(±)-Diethyl-1,2,3,4-tetrahydro-6-methyl-2-[2-oxo-2-phenylethylidene]-4-[2-pyridyl]-3,5-pyridinedicarboxylate], the pIC50 at dihydropyridine receptor is 7.60. Besides, the 25% effect concentration (EC25) in test [1] (setting [3]) and in test [1] (setting [4]) was 1000 nM throughout.
As to `CCOC(=O)C1=C(C)N/C(=C\C(=O)c2ccccc2)[C@@H](C(=O)OCC)[C@@H]1c1ccccc1C(F)(F)F` (relative stereo) [Example 1, (2Z,3α,4β)-(±)-Diethyl-1,2,3,4-tetrahydro-6-methyl-2-(2-oxo-2-phenylethylidene)-4-[2-(trifluoromethyl)-phenyl]-3,5-pyridinedicarboxylate], at dihydropyridine receptor, the pIC50 is 6.55. Further, the values for the EC25 in test [1] (setting [3]) and in test [1] (setting [4]) were 100 nM and 300 nM, respectively.
Regarding `CCOC(=O)C1=C(C)N/C(=C\C(=O)c2ccncc2)[C@@H](C(=O)OCC)[C@@H]1c1ccccc1C(F)(F)F` (relative stereo) [Example 2], the pIC50 at dihydropyridine receptor was 7.70. For the same compound, in the test on anesthetized dog, the “decrease in blood pressure” value is 21%, the increase in contractility came to 99% and the “increase in heart rate” value is 67%. The EC25 in test [1] (setting [3]) was over 3000 nM. Moreover, the 25% effect concentration (EC25) in test [1] (setting [4]) was under 100 nM.
Consider `CCOC(=O)C1=C(C)N/C(=C\C(=O)c2ccc(Cl)cc2)[C@@H](C(=O)OCC)[C@@H]1c1ccccc1C(F)(F)F` (relative stereo) [Example 3, (2Z,3α,4β)-Diethyl-2-[2-(4-chlorophenyl)-2-oxoethylidene]-1,2,3,4-tetrahydro-6-methyl-4-[2-(trifluoromethyl)phenyl]-3,5-pyridinedicarboxylate], for which the negative logarithm of the IC50 (pIC50) on dihydropyridine receptor was 6.72. Moreover, the 25% effect concentration (EC25) in test [1] (setting [3]) and in test [1] (setting [4]) was under 100 nM each time.
For `CCOC(=O)C1=C(C)N/C(=C\C(=O)c2ccc(F)cc2)[C@@H](C(=O)OCC)[C@@H]1c1ccccc1C(F)(F)F` (relative stereo) [Example 4, (2Z,3α,4β)-Diethyl-2-[2-(4-fluorophenyl)-2-oxoethylidene]-1,2,3,4-tetrahydro-6-methyl-4-[2-(trifluoromethyl)phenyl]-3,5-pyridinedicarboxylate], at dihydropyridine receptor, the negative logarithm of the IC50 (pIC50) is 7.28. For the same compound, the EC25 in test [1] (setting [3]) was over 3000 nM; in test [1] (setting [4]), 300 nM.
As to `CCOC(=O)C1=C(C)N/C(=C\C(=O)c2ccc(C)cc2)[C@@H](C(=O)OCC)[C@@H]1c1ccccc1C(F)(F)F` (relative stereo) [Example 5, (2Z,3α,4β)-Diethyl-2-[2-(4-methylphenyl)-2-oxoethylidene]-1,2,3,4-tetrahydro-6-methyl-4-[2(trifluoromethyl)phenyl]-3,5-pyridinedicarboxylate], on dihydropyridine receptor, the negative-log IC50 (pIC50) was 6.44. In addition, the results for the EC25 in test [1] (setting [3]) and in test [1] (setting [4]) were over 3000 nM and 130 nM, respectively.
In the case of `CCOC(=O)C1=C(C)N/C(=C\C(=O)c2ccc(N(C)C)cc2)[C@@H](C(=O)OCC)[C@@H]1c1ccccc1C(F)(F)F` (relative stereo) [Example 6, (2Z,3α,4β)-(±) -Diethyl-1,2,3,4-tetrahydro-6-methyl-2-[2-oxo-2-4-(dimethylamino)phenyl)ethylidene]-4-[2-(trifluoromethyl)phenyl]-3,5-pyridine-dicarboxylate], the concentration for an effect of 25% (EC25) in test [1] (setting [3]) is over 3000 nM; in test [1] (setting [4]) it was 200 nM.
As for `CCOC(=O)[C@H]1/C(=C/C(=O)c2ccccc2)NC(C)=C([N+](=O)[O-])[C@@H]1c1ccccc1C(F)(F)F` (relative stereo) [Example 7, (2Z,3α,4β)-(±)-1,2,3,4-Tetrahydro-6-methyl-5-nitro-2-[2-oxo-2-phenylethylidene]-4-[2-(trifluoromethyl)phenyl]-3-pyridinedicarboxylic acid ethyl ester], the pIC50 at dihydropyridine receptor was 6.89. Also, the 25% effect concentration (EC25) was over 3000 nM in test [1] (setting [3]) and 100 nM in test [1] (setting [4]).
On to `CC1=C([N+](=O)[O-])[C@H](c2ccccc2C(F)(F)F)[C@@H](C(=O)c2ccccc2)/C(=C/C(=O)c2ccccc2)N1` (relative stereo) [Example 8, [trans-(Z)]-2-[3-Benzoyl-3,4-dihydro-6-methyl-5-nitro-4-[2-(trifluoromethyl)phenyl]-2-(1H)pyridinylidene]1-phenylethanone], for which the pIC50 at dihydropyridine receptor was under 6.00. The EC25 in test [1] (setting [3]) was over 3000 nM; in test [1] (setting [4]) it was 300 nM.
Turning to `CCOC(=O)C1=C(C)N/C(=C\C(=O)c2ccccc2)[C@@H](C(=O)c2ccccc2)[C@@H]1c1ccccc1C(F)(F)F` (relative stereo) [Example 9, (4α,5β,6Z)-(±)-Ethyl-5-benzoyl-1,4,5,6-tetrahydro-2-methyl-6-(2-oxo-2-phenylethylidene)-4-[2-trifluoromethyl)phenyl]3-pyridinecarboxylate], the pIC50 at dihydropyridine receptor was 6.96. Besides, the concentration for an effect of 25% (EC25) amounted to 1200 nM in test [1] (setting [3]) and 400 nM in test [1] (setting [4]).
For the compound `CCOC(=O)[C@@H]1/C(=C/C(=O)c2ccccc2)NC2=C(C(=O)CCC2)[C@H]1c1ccccc1C(F)(F)F` (relative stereo) [Example 10], the negative-log IC50 (pIC50) on dihydropyridine receptor was under 6.00. In addition, the EC25 was 2000 nM in test [1] (setting [3]) and 1400 nM in test [1] (setting [4]).
Turning to `CCOC(=O)[C@@H]1/C(=C2\CCc3ccccc3C2=O)NC(C)=C(C#N)[C@H]1c1ccccc1C(F)(F)F` (relative stereo) [Example 11], on dihydropyridine receptor, the pIC50 was under 6.00. Further, the concentration for an effect of 25% (EC25) in test [1] (setting [4]) was 1000 nM. For the same compound, the concentration for an effect of 20% (EC20) in test [2] was 1000 nM.
Turning to `CCOC(=O)C1=C(C)NC(=C2CCc3ccccc3C2=O)[C@@H](C(=O)OCC)[C@@H]1c1ccccc1C(F)(F)F` (relative stereo) [Example 12], the pIC50 at dihydropyridine receptor was under 6.00.
For `CCOC(=O)C1=C(C)N/C(=C\C(=O)c2ccccc2)[C@@H](C(=O)OCC)[C@@H]1c1cccc([N+](=O)[O-])c1` (relative stereo) [Example 14, (2Z,3α,4β)-(±)-Diethyl-1,2,3,4-tetrahydro-6-methyl-2-[2-oxo-2-phenylethylidene]-4-[3-nitrophenyl]-3,5-pyridinedioarboxylate], the pIC50 at dihydropyridine receptor was 7.07. Besides, the EC25 in test [1] (setting [3]) and in test [1] (setting [4]) was 1000 nM throughout.
Take `CCOC(=O)C1=C(C)N/C(=C\C(=O)c2ccccc2)[C@@H](C(=O)OCC)[C@@H]1c1cccc(Cl)c1Cl` (relative stereo) [Example 15, (2Z,3α,4β)-(±)-Diethyl-1,2,3,4-tetrahydro-6-methyl-2-[2-oxo-2-phenylethylidene]-4-2,3-dichlorophenyl]-3,5-pyridinedicarboxylate]: the negative-log IC50 (pIC50) at dihydropyridine receptor is 6.74. Besides, the 25% effect concentration (EC25) in test [1] (setting [3]) and in test [1] (setting [4]) was 1000 nM in each case.
“(2Z,3α,4β)-(±)-Diethyl-1,2,3,4-tetrahydro-6-methyl-2-[2-oxo-2-phenylethylidene]-4-[2-nitrophenyl-3,5-pyridinedicarboxylate [Example 13]”: the negative logarithm of the IC50 (pIC50) at dihydropyridine receptor is 7.41. For the same compound, the 25% effect concentration (EC25) in test [1] (setting [3]) and in test [1] (setting [4]) was 1000 nM throughout.
